Assay results as given in patent US20220387392A1, “METHODS AND COMPOSITIONS RELATED TO THE USE OF ERGOTHIONEINE” (priority 2020, published 2022).

Legend:
[1] = test system: primary neonatal fibroblast cells; experiment: MTT assay, cytotoxicity of ergothioneine; format: cell-based, human; details: all concentrations tested (0.04, 0.1, 0.3, and 1.0 mg/ml); 72 hours and one week; with and without 10 μM H2O2
Procedure: (§1) Primary cultures of human neonatal dermal fibroblasts (ATCC® PCS-201-010™) were established under standard culture conditions. Cells were seeded at 3×10^3 cells/cm^2 and were grown and maintained in Fibroblast Medium (Innoprot).
The MTT assay is a colorimetric assay that uses a yellow tetrazolium salt (3-(4,5-dimethylthiazol-2-yl)-2,5-diphenyltetrazolium bromide, or MTT) to measure metabolic activity of cells as a proxy for cell viability. MTT reduction rate is an indicator of the functional integrity of the mitochondria and as a result, of cellular viability. To determine the cytotoxicity of ergothioneine on primary neonatal fibroblast cells, the cells were seeded in 96 well plates (Nunc) at 0.35×10^4 cells/plate and 0.5×10^4 cells/plate for 72 hours and 1-week treatment. After 24 hours from seeding, the cells were washed once with phosphate-buffered saline (PBS) and treated with the respective compounds in cell culture media. Ergothioneine was dissolved in dimethyl sulfoxide (DMSO). […] Each condition was tested in triplicates with and without 10 μM H2O2. For positive and negative controls, 8 mM methyl methane sulfonate (MMS) and DMSO 100% were used, respectively. […] Absorbance was measured using an Envision multiplate reader at a wavelength of 570 nm.
The percentage of cell death was calculated using the following equation: […]

[2] = test system: primary neonatal fibroblast cells; experiment: Morphological analysis through optical microscopy visualization; format: cell-based, human; details: concentrations of up to 1.0 mg/ml
[3] = test system: neonatal human fibroblast cells; experiment: Proliferative analysis (population doubling, growth curves); format: cell-based
Procedure: (§2) Primary cultures of neonatal human fibroblast cells were established. Cells were seeded at 5×10^3 cells/cm^2), in Fibroblast Medium (Innoprot). Media was renewed every 2 to 3 days and cells were passaged at sub-confluence (70-80%) every 7 days. Cells were expanded during eight weeks under standard and oxidative (10 μM H2O2) cell culture condition as described previously. Different concentrations of ergothioneine (0.04, 0.3, 0.1, and 1.0 mg/ml) or vehicle control were added to the treated or control cells, respectively. Treatment dilutions were prepared fresh in each passage with fresh media. Cell growth was monitored for each condition by counting cell numbers at each passage using a Countess™ cell counter (Invitrogen). Population doubling (PD) was calculated with the formula PD=3.322(Log(Cf)−Log (Ci))+X (where, Cf: Final concentration; Ci: initial concentration; X: PD last passage). One PD is equivalent to one round of cell replication.
(§3) Each treatment was tested in triplicate and in different plates. Each plate contained a control sample. Frozen vials were obtained at different time points for analysis of relative telomerase activity and telomere length.

telomerase = experiment: Relative telomerase activity (Q-TRAP); format: cell-based, human
Procedure: The quantitative polymerase chain reaction (PCR)-based telomeric repeat amplification protocol (Q-TRAP) is a sensitive and accurate PCR-based assay that enables the measurement of telomerase activity. Cellular pellets from neonatal fibroblast cells were lysed using the CHAPS (3-cholamidopropyl dimethylammonio 1-propanesulfonate) lysis buffer for protein extraction. Samples were stored at 4° C. and were used within 24 hours. Protein quantification was performed for each sample using Biorad protein assay (Bio-Rad Kit 50000002). A minimum of 0.3 mg/ml protein concentration was required to proceed with the analysis of the samples. Telomerase protein extracts are then incubated at 27° C. for 30 min to allow the telomerase in the protein extracts to elongate the TS primer by adding TTAGGG repeat sequences. Following the enzymatic reaction, telomerase extension products are then amplified and quantified by real-time qPCR using SYBR Green (a green fluorescent cyanine dye). PCR was initiated at 95° C. for 10 min, followed by a 40-cycle amplification (95° C. for 15 s, 60° C. for 60 s) and a melt curve stage step. Reactions were monitored and analyzed with QuantStudio 5 (Applied Biosystems). Telomerase activity in cell lines or samples is calculated based on the threshold cycle (Ct). All samples were run in triplicate.
The telomerase-positive standard dilution series is plotted against the telomere protein concentration (r^2>0.9) as a standard curve of Ct values. The standard curve is generated by graphing threshold cycles (Ct values) of HeLa cell line standards against log of 1000, 333, 111, 37.03, 12.34, 4.11, 1.37 and 0.45 ng of protein (whole cell extract).

[4] = test system: human neonatal dermal fibroblasts; experiment: Telomere length measurement by Telomere Analysis Technology (TAT, HT Q-FISH); format: cell-based; details: for proportion of short telomeres (<3 kbp): control 8.1±0.6
Procedure: as §1, §2, §3
All telomere length measurements were performed using Life Length's proprietary Telomere Analysis Technology (TAT®). TAT® measures telomere length using a high-throughput (HT) Q-FISH (quantitative fluorescent in situ hybridization) technique as previously described. This method is based on a quantitative fluorescence in-situ hybridization method modified for measuring individual chromosomes of cells in interphase. In brief, telomeres are hybridized with a fluorescent Peptide Nucleic Acid probe (PNA) that recognizes three telomere repeats (sequence: Alexa488-OO-CCCTAACCCTAACCCTAA, purchased from Panagene). The images of the nuclei and telomeres are captured by a high-content screen system. The intensity of the fluorescent signal from the telomeric PNA probes that hybridize to a given telomere is proportional to the length of that telomere. The intensities of fluorescence are translated to base pairs (bp) through a standard regression curve which is generated using control cell lines with known telomere length. TAT® not only measures telomere length in absolute base pair units, it also provides an assessment of the distribution, 50th and 20th percentiles of telomere length and the percent of short telomeres, allowing for a more comprehensive analysis of each sample. All samples are run in quintuplicate.
Results obtained from each treatment and at each time point were compared with the appropriate control group using Student's t test (independent samples t-test).

[5] = ingested; rats; cited from earlier work
[6] = humans, supplementation for 7 days, cited from earlier work

With `C[N+](C)(C)[C@@H](Cc1c[nH]c(=S)[nH]1)C(=O)[O-]` [ergothioneine] the cell death [1] was < 20%, the “deleterious effects by morphological analysis” value [2] was “did not produce any deleterious effects” and the “proliferative capacity vs control” value ([3]; oxidative culture conditions (10 μM H2O2), 1.0 or 0.3 mg/ml, after Week 4) was “increase in their proliferative capacity”. The “proliferative capacity vs control” value ([3]; standard culture conditions, 0.04-1.0 mg/ml, 8 weeks) was “no differences”, the “telomerase activity vs control cells” value (telomerase; 6 hours, all dose levels) was “significantly lower” and the “telomerase activity, higher compared with control cells” value (telomerase; 24 hours, all dose levels, p<0.05) was 50-90%. The “telomerase activity vs control” value (telomerase; 48 hours, statistically significant only for 0.04 mg/ml and 1.0 mg/ml) was “still elevated”, the “telomerase activity vs control” value (telomerase; 72 hours) was “not significantly different” and the “effect on telomeres (FIG. 7D)” value ([4]; dose of 0.3 mg/ml) was “telomere lengthening”. For the same compound, the “median telomere length vs control” value ([4]; oxidative conditions (10 μM H2O2), Week 4, 0.1 or 1.0 mg/ml, p<0.05) was “higher median telomere length”, the median telomere length ([4]; oxidative conditions (10 μM H2O2), Week 8, 0.04 mg/ml, control 8725±94) was 9015±112 bp and the median telomere length ([4]; oxidative conditions (10 μM H2O2), Week 8, 0.1 mg/ml, control 8725±94) was 8794±212 bp. For the same compound, the median telomere length ([4]; oxidative conditions (10 μM H2O2), Week 8, 0.3 mg/ml, control 8725±94 bp, in bp) was 9068±24, the median telomere length ([4]; oxidative conditions (10 μM H2O2), Week 8, 1.0 mg/ml, control 8725±94) was 8997±171 bp and the “20th percentile telomere length vs control” value ([4]; oxidative conditions, Week 4, 0.1, 0.3, or 1.0 mg/ml, p<0.05) was “greater telomere length”. The “reduction of telomere shortening rate” value ([4]; oxidative conditions, Week 4, all concentrations, significant for 0.04, 0.1 and 1.0 mg/ml) was 27-52%, the “percentage of short telomeres (<3 kbp) vs control” value ([4]; oxidative conditions, Week 4 and Week 8, all concentrations) was “reduced the percentage of short telomeres” and the “20th percentile telomere length vs control” value ([4]; oxidative conditions, Week 8, all concentrations) was “significant increases”. For the same compound, the “telomere shortening rate vs control” value ([4]; oxidative conditions, Week 8, did not reach statistical significance) was “appeared to be lower”, the “20th percentile telomere length vs control” value ([4]; standard conditions, Week 4, 0.3 mg/ml or 1.0 mg/ml) was “greater” and the “proportion of short telomeres (<3 kbp)” value ([4]; standard conditions, Week 4, 0.3 mg/ml) was 7.3±1.1%. For the same compound, the median telomere length ([4]; standard conditions, Week 4, 0.3 mg/ml, control 9378±107) was 9637±340 bp, the “proportion of short telomeres (<3 kbp)” value ([4]; standard conditions, Week 4, 1.0 mg/ml) was 6.8±1.0% and the median telomere length ([4]; standard conditions, Week 4, 1.0 mg/ml, control 9378±107) was 9745±206 bp. The “telomere shortening rate vs control” value ([4]; standard conditions, Week 4, 1.0 mg/ml, p=0.09) was “trend for decreased telomere shortening rate”, the “telomere shortening rate vs control” value ([4]; standard conditions, Week 4, 0.1 or 0.3 mg/ml, normalized by population doublings) was “significantly lower” and the “protective effects on telomeres seen at Week 4” value ([4]; standard conditions, Week 8) was “no longer present”. For the same compound, the whole-body half-life [5] was 1 month, the “concentration in whole blood” value ([6]; approximately) was 30 to 40 µM and the concentration in plasma [6] was “approximately 3 μM”.
